For one assay, the system named is KG1a. Put plainly: Inhibition of proliferation (CellTiterblue, 72 hr), KG1a. Format: cell-based, human. The conditions noted are these: Homo sapiens, KG-1a; 72 hr. As to the method:
A number of studies were performed to analyze the consequences of tyrosine kinase inhibition in cell lines. To do this, 1000 cells are seeded in 27 μl/well in 384-well microplates, which are then placed in a humidified CO2 incubator at 37° C. overnight. The next day, 3 μl/well of 10× concentrated drug is added and the plates are returned to the incubator for 72 hr. After 72 hr incubation, plates are removed and 6 μl/well CellTiterblue (Promega) viability reagent is added. Plates are returned to the incubator for 3 hrs, after which fluorescence measurements are read on the Victor X3 plate reader (Perkin Elmer). Data are analyzed using Excel (Microsoft), and GI50 values are determined using Prism (Graphpad).

The next assay addresses FGFR1(h) (Homo sapiens, UniProt P11362). Put plainly: Kinase assay, FGFR1(h). The format is biochemical. The conditions noted are these: 1 μM. The protocol: (§1) Kinase assay protocols well known to those of ordinary skill in the art were used. Specifically, the buffer composition was as follows: 20 mM MOPS, 1 mM EDTA, 0.01% Brij-35, 5% Glycerol, 0.1% β-mercaptoethanol, 1 mg/mL BSA. Test compounds were initially dissolved in DMSO at the desired concentration, then serially diluted to the kinase assay buffer. In a final reaction volume of 25 μL FGFR1(h) (5-10 mU) and KDR(h) (5-10 mU) are incubated with 8 mM MOPS pH 7.0, 0.2 mM EDTA, 200 μM LRRASLG (Kemptide), 10 mM magnesium acetate and [γ^33P-ATP]. The reaction was initiated by the addition of the MgATP mix. After incubation for 40 minutes at room temperature, the reaction was stopped by addition of 5 μL of a 3% phosphoric acid solution. Ten L of the reaction was then spotted onto a P30 filter mat and washed three times for 5 minutes in 50 mM phosphoric acid and once in methanol prior to drying and scintillation counting. Wells containing substrate but no kinase and wells containing a phosphopeptide control were used to set 0% and 100% phosphorylation value, respectively.
(§2) Of all of the steps in developing a drug, the hardest is finding promising compounds. (See, e.g., Malo et al., “Statistical practice in high-throughput screening data analysis,” Nature Biotechnology, 2006, 24, 167-75.) Kinase inhibitors often also have an anti-proliferative effect. […] The kinase inhibitory activity Compound 19 was tested using the kinase assay described in Example 3. […] These mutations in the tested kinases are thought to play an important role in transformation of some cancers.

A further assay has as its target KDR(h) (Homo sapiens, UniProt P35968). Put plainly: Kinase assay, KDR(h). The format is biochemical. The protocol:
as §1, §2

Sequence of FGFR1(h) (P11362 22-822): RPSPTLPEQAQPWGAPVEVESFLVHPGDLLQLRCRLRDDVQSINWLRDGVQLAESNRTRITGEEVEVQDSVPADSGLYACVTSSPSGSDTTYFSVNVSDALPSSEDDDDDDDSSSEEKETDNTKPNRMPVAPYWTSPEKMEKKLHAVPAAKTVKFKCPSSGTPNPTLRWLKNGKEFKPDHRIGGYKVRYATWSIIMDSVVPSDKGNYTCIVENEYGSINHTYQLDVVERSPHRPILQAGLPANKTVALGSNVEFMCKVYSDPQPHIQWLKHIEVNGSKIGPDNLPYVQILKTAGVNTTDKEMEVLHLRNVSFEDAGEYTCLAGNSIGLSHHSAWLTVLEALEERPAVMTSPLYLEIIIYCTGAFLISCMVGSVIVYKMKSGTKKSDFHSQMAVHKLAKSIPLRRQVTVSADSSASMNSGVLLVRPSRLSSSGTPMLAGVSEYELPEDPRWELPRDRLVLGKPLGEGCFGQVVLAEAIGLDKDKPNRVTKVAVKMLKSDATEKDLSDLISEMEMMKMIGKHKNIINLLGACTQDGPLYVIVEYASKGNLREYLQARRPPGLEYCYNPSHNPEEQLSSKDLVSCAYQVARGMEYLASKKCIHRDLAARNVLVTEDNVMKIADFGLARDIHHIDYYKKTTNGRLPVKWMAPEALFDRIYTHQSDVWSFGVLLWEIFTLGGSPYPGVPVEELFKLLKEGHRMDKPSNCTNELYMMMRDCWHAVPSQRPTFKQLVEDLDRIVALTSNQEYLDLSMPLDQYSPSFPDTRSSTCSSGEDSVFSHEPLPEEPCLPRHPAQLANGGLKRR
Sequence of KDR(h) (P35968 20-1356): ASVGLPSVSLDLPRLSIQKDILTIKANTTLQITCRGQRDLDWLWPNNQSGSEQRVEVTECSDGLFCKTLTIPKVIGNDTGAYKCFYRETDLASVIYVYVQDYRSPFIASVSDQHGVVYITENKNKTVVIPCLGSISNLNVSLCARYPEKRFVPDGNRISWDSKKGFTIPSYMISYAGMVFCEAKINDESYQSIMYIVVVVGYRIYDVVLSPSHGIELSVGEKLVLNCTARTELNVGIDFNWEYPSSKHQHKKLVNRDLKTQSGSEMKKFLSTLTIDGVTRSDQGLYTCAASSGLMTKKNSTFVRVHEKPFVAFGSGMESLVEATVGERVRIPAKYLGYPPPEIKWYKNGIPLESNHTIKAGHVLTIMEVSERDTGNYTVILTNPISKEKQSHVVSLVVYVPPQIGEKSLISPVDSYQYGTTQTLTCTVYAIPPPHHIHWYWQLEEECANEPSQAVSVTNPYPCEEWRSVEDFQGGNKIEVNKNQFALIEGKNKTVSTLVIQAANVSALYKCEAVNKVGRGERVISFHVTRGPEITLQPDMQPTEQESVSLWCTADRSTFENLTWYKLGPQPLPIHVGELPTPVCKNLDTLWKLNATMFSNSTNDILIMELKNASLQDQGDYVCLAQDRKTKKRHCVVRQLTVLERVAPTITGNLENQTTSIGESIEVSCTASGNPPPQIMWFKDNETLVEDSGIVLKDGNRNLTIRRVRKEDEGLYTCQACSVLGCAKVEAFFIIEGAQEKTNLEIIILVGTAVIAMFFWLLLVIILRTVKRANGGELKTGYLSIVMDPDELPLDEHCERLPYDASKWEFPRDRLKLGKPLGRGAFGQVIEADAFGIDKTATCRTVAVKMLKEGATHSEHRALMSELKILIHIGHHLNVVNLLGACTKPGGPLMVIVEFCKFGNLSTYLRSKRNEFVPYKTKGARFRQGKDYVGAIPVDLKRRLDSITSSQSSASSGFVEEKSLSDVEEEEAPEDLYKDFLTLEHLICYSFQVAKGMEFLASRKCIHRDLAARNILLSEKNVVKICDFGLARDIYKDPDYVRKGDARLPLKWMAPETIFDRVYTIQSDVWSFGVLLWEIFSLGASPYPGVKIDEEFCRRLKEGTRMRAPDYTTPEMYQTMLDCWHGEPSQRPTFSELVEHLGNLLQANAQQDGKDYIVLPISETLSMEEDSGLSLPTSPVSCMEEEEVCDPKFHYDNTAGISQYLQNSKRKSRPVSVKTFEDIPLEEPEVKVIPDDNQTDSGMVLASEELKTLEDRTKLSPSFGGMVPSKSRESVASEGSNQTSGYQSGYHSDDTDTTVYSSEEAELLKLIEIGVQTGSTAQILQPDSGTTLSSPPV

The GI50 is the concentration at which growth is held to half of that of the control. High values mean less potent growth inhibition, low ones more potent growth inhibition. The inhibition is the drop in the measured response relative to a control, in per cent. In the assay on KG1a, `COc1cc(N2CCN(C)CC2)ccc1Nc1ncnc(Oc2ccc3[nH]c(C)cc3c2F)c1C#N` [Compound 1] gave a GI50 of 49 nM. Moreover, the inhibition at 1 µM came out at 99% against FGFR1(h) and 96% against KDR(h).

As for `Cc1cc2c(F)c(Oc3ncnc(Nc4ccc(N5CCN(C)CC5)c(F)c4)c3C#N)ccc2[nH]1` [Compound 2], in the assay on KG1a, halving of growth (GI50) required 62 nM. Besides, the inhibition at 1 µM was determined as 100% against FGFR1(h) and 96% at KDR(h).

As to `Cc1cc2c(F)c(Oc3ncnc(N4CCN(C)CC4)c3C#N)ccc2[nH]1` [Compound 3], the inhibition at 1 µM against FGFR1(h) was 1%; on KDR(h) it was 4%.

Take `CCN1CCN(c2ccc(Nc3ncnc(Oc4ccc5[nH]c(C)cc5c4F)c3C(F)F)cc2)CC1` [Compound 5]: the figures for the inhibition at 1 µM against FGFR1(h) and against KDR(h) were 26% and 9%, respectively.

As for `Cc1cc2c(F)c(Oc3ncnc(Nc4ccc(C(=O)N5CCN(C)CC5)cc4)c3C#N)ccc2[nH]1` [Compound 6], the values for the inhibition at 1 µM against FGFR1(h) and on KDR(h) were 85% and 95%, respectively.

`Cc1cc2c(F)c(Oc3ncnc(Nc4ccc(N5CCN(C)CC5)c(C(F)(F)F)c4)c3C#N)ccc2[nH]1` [Compound 7]: the inhibition at 1 µM on FGFR1(h) amounted to 49%; against KDR(h), 94%.

Regarding `CCN1CCN(c2ccc(Nc3ncnc(Oc4ccc5[nH]c(C)cc5c4F)c3C#N)cc2F)CC1` [Compound 8], it took 250 nM to inhibit growth with KG1a by half (GI50). Further, the inhibition at 1 µM was determined as 97% against FGFR1(h) and 96% against KDR(h).

In turn, `Cc1cc2c(F)c(Oc3ncnc(Nc4ccc(N5CCNCC5)c(F)c4)c3C#N)ccc2[nH]1` [Compound 9] returned a GI50 in the assay with KG1a of 314 nM. Moreover, the inhibition at 1 µM against FGFR1(h) is 100%; against KDR(h) it was 96%.

In the case of `Cc1cc2c(F)c(Oc3ncnc(Nc4ccc(CN5CCNCC5)cc4)c3C#N)ccc2[nH]1` [Compound 10], the inhibition at 1 µM was 34% at FGFR1(h) and 23% against KDR(h).

The compound `Cc1cc2c(F)c(Oc3ncnc(Nc4ccc(N5CCC(N(C)C)CC5)cc4)c3C#N)ccc2[nH]1` [Compound 11] showed a GI50 in the assay on KG1a of 25 nM. The inhibition at 1 µM on FGFR1(h) came out at 100%; against KDR(h), 96%.

Turning to `Cc1cc2c(F)c(Oc3ncnc(Nc4ccc(-n5ccnc5)cc4)c3C#N)ccc2[nH]1` [Compound 12], the inhibition at 1 µM against FGFR1(h) is 56%; at KDR(h), 67%.

As to `Cc1cc2c(F)c(Oc3ncnc(Nc4ccc(-n5ccnc5C)cc4)c3C#N)ccc2[nH]1` [Compound 13], the inhibition at 1 µM is 48% against FGFR1(h) and 85% against KDR(h).

As to `Cc1cc2c(F)c(Oc3ncnc(Nc4ccc(C)c(S(N)(=O)=O)c4)c3C#N)ccc2[nH]1` [Compound 15], the inhibition at 1 µM came to 94% at FGFR1(h) and 96% against KDR(h).

Take `Cc1cc2c(F)c(Oc3ncnc(Nc4ccc(N5C[C@@H](C)N[C@@H](C)C5)c(F)c4)c3C#N)ccc2[nH]1` [Compound 16]: the GI50 in the assay with KG1a came out at 15 nM. Further, the results for the inhibition at 1 µM against FGFR1(h) and on KDR(h) were 100% and 96%, respectively.

With `Cc1cc2c(F)c(Oc3ncnc(Nc4ccc(N5CCN(CC(F)(F)F)CC5)cc4)c3C#N)ccc2[nH]1` [Compound 18], the inhibition at 1 µM on FGFR1(h) turned out to be 76%; on KDR(h) it was 92%.

Regarding `Cc1cc2c(F)c(Oc3ncnc(Nc4ccc(N5CCN(CC(F)(F)F)CC5)cc4)c3C#N)cc(F)c2[nH]1` [Compound 20], the inhibition at 1 µM against FGFR1(h) was 70%; against KDR(h), 42%.

As for `Cc1cc2c(F)c(Oc3ncnc(Nc4cccc(N5CCOCC5)c4)c3C#N)ccc2[nH]1` [Compound 21], the inhibition at 1 µM was found to be 100% against FGFR1(h) and 96% against KDR(h).

On to `CCN1CCN(c2cccc(Nc3ncnc(Oc4ccc5[nH]c(C)cc5c4F)c3C#N)c2)CC1` [Compound 22], for which, in the assay on KG1a, halving of growth (GI50) required 196 nM. The inhibition at 1 µM on FGFR1(h) worked out at 100%; at KDR(h), 96%.

On to `Cc1cc2c(F)c(Oc3ncnc(Nc4ccccc4)c3C#N)ccc2[nH]1` [Compound 23], for which the inhibition at 1 µM turned out to be 98% against FGFR1(h) and 96% against KDR(h).

Turning to `Cc1cc2c(F)c(Oc3ncnc(Nc4ccc(N5CCCCC5)cc4)c3C#N)ccc2[nH]1` [Compound 24], the inhibition at 1 µM was found to be 86% against FGFR1(h) and 95% against KDR(h).

On to `CC(=O)Nc1ccc(Nc2ncnc(Oc3ccc4[nH]c(C)cc4c3F)c2C#N)cc1` [Compound 25, N-(4-((5-cyano-6-((4-fluoro-2-methyl-1H-indol-5-yl)oxy)pyrimidin-4-yl)amino)phenyl)acetamide], for which growth in the assay with KG1a was halved (GI50) at 30 nM. Besides, the values for the inhibition at 1 µM against FGFR1(h) and against KDR(h) were 99% and 96%, respectively.

In the case of `Cc1cc2c(F)c(Oc3ncnc(Nc4ccc(NS(C)(=O)=O)cc4)c3C#N)ccc2[nH]1` [Compound 26], the results for the inhibition at 1 µM at FGFR1(h) and at KDR(h) were 97% and 96%, respectively.

Regarding `Cc1cc2c(F)c(Oc3ncnc(Nc4ccc(N5CCNC(=O)C5)cc4)c3C#N)ccc2[nH]1` [Compound 27], the inhibition at 1 µM against FGFR1(h) is 99%; against KDR(h), 97%.

The compound `Cc1cc2c(F)c(Oc3ncnc(Nc4ccc(N5CCCS5(=O)=O)cc4)c3C#N)ccc2[nH]1` [Compound 28] came in with a GI50 with KG1a of 226 nM. Further, the inhibition at 1 µM was 99% against FGFR1(h) and 96% on KDR(h).

In the case of `CCOc1ccc(Nc2ncnc(Oc3ccc4[nH]c(C)cc4c3F)c2C#N)cc1` [Compound 29], the values for the inhibition at 1 µM against FGFR1(h) and at KDR(h) were 91% and 95%, respectively.

As for `Cc1cc2c(F)c(Oc3ncnc(Nc4ccc(C5CCNCC5)cc4)c3C#N)ccc2[nH]1` [Compound 30], the inhibition at 1 µM is 91% on FGFR1(h) and 94% at KDR(h).

With `CC(=O)N(C)c1ccc(Nc2ncnc(Oc3cc(F)c4[nH]c(C)cc4c3F)c2C#N)cc1` [Compound 32], the figures for the inhibition at 1 µM against FGFR1(h) and on KDR(h) were 92% and 69%, respectively.

`Cc1cc2c(F)c(Oc3ncnc(Nc4ccc(NC(=O)C5CC5)cc4)c3C#N)cc(F)c2[nH]1` [Compound 35] came in with a GI50 in the assay with KG1a of 78 nM. Moreover, the inhibition at 1 µM on FGFR1(h) worked out at 100%; against KDR(h), 95%.

In the case of `Cc1cc2c(F)c(Oc3ncnc(Nc4ccc(C(N)=O)cc4)c3C#N)cc(F)c2[nH]1` [Compound 36], the GI50 in the assay with KG1a came to 182 nM. Moreover, the inhibition at 1 µM on FGFR1(h) was found to be 99%; against KDR(h), 67%.

Consider `CNC(=O)c1ccc(Nc2ncnc(Oc3cc(F)c4[nH]c(C)cc4c3F)c2C#N)cc1` [Compound 37], for which the inhibition at 1 µM on FGFR1(h) worked out at 99%; at KDR(h), 70%.

As for `Cc1cc2c(F)c(Oc3ncnc(Nc4ccc(C(=O)N(C)C)cc4)c3C#N)cc(F)c2[nH]1` [Compound 38], the inhibition at 1 µM on FGFR1(h) turned out to be 90%; against KDR(h) it was 73%.

As for `Cc1cc2c(F)c(Oc3ncnc(Nc4ccc(F)cc4)c3C#N)cc(F)c2[nH]1` [Compound 39], the inhibition at 1 µM against FGFR1(h) was 91%; on KDR(h), 36%.

Consider `Cc1cc2c(F)c(Oc3ncnc(Nc4ccc(Cl)cc4)c3C#N)cc(F)c2[nH]1` [Compound 40], for which the values for the inhibition at 1 µM against FGFR1(h) and at KDR(h) were 78% and 20%, respectively.

`Cc1cc2c(F)c(Oc3ncnc(Nc4ccc(N5CCCC5=O)cc4)c3C#N)cc(F)c2[nH]1` [Compound 41] registered a GI50 in the assay with KG1a of 180 nM. For the same compound, the inhibition at 1 µM against FGFR1(h) was found to be 101%; against KDR(h), 96%.

Regarding `Cc1cc2c(F)c(Oc3ncnc(Nc4ccc5[nH]ccc5c4)c3C#N)cc(F)c2[nH]1` [Compound 42], the GI50 with KG1a amounted to 35 nM. The inhibition at 1 µM was 101% against FGFR1(h) and 96% against KDR(h).

Take `Cc1cc2c(F)c(Oc3ncnc(Nc4ccccc4O)c3C#N)cc(F)c2[nH]1` [Compound 43]: the inhibition at 1 µM against FGFR1(h) worked out at 97%; at KDR(h) it was 76%.

With `Cc1cc2c(F)c(Oc3ncnc(Nc4ccc([N+](=O)[O-])cc4)c3C#N)cc(F)c2[nH]1` [Compound 44], the inhibition at 1 µM at FGFR1(h) was 41%; at KDR(h) it was 14%.

For the compound `CCC(=O)Nc1cccc(Nc2ncnc(Oc3cc(F)c4[nH]c(C)cc4c3F)c2C#N)c1` [Compound 52], in the assay with KG1a, the GI50 was found to be 174 nM. The inhibition at 1 µM was determined as 101% on FGFR1(h) and 91% at KDR(h).

Regarding `COC(=O)c1ccc(Nc2ncnc(Oc3cc(F)c4[nH]c(C)cc4c3F)c2C#N)cc1` [Compound 54], the inhibition at 1 µM against FGFR1(h) turned out to be 89%; against KDR(h) it was 17%.

Regarding `Cc1cc2c(F)c(Oc3ncnc(Nc4ccc(C#N)cc4)c3C#N)cc(F)c2[nH]1` [Compound 55], the inhibition at 1 µM on FGFR1(h) came out at 55%; against KDR(h), 6%.

Values taken from patent US20180215734A1, “PYRIMIDINE DERIVATIVES AS KINASE INHIBITORS AND THEIR THERAPEUTICAL APPLICATIONS” (NantBioScience, Inc., priority 2016, published 2018).
